From publication PMC8285423, “In vitro efficacy of artemisinin-based treatments against SARS-CoV-2” (Scientific Reports, 2021)
In brackets after ≈: the same amount, converted by molar mass.

How the values were obtained:
[1] = Cell viability assay (CellTiter 96 AQueous One) in A549-hACE2 cells; type: cell-based; details: human, no infection
[2] = test system: SARS-CoV-2/human/Denmark/DK-AHH1/2020; assay: microbe, parasite or virus in culture; type: cell-based
[3] = test system: SARS-CoV-2; assay: Treatment assays summarised over different cell types (VeroE6, Huh7.5, A549-hACE2); type: cell-based; details: Severe acute respiratory syndrome coronavirus 2, VeroE6, Huh7.5, A549-hACE2 cells, read-out: range of 50% effective concentrations (EC50) in different cell types
[4] = test system: SARS-CoV-2/human/Denmark/DK-AHH1/2020; assay: Concentration–response pretreatment antiviral assay in VeroE6 cells (spike immunostaining); type: cell-based; details: for EC50: Severe acute respiratory syndrome coronavirus 2, Vero C1008, added 1.5 h prior to infection, 2-day incubation
[5] = animal studies; single dose; cited from earlier work
[6] = Cell viability assay (CellTiter 96 AQueous One) in VeroE6 cells; details: African green monkey
Description: (§1) To evaluate cytotoxic effects of the tested extracts, compounds, and diluents (DMSO), cell viability was monitored using the CellTiter 96 AQueous One Solution Cell Proliferation Assay (Promega, Madison, WI, USA). VeroE6 cells, Huh7.5 cells or A549-hACE2 cells were plated at 10,000, 8000 or 10,000 cells per well of flat bottom 96-well plates, respectively (Thermo Fisher Scientific, Roskilde, Denmark). The next day, medium was exchanged to contain specified concentrations of extracts or compounds or dilutions of DMSO adding 100 µL per well. Each concentration or dilution was tested in 3 replicates; at least 6 nontreated control wells were included in the assay. For VeroE6 cells and A549-hACE2 cells, after 48 ± 2 h, and for Huh7.5 cells, after 72 ± 2 h of incubation at 37 °C and 5% CO2, 20 µL CellTiter 96 AQueous One Solution Reagent was added per well and plates were incubated for 1.5 to 2 h at 37 °C and 5% CO2, prior to recording absorbance at 492 nm using a FLUOstar OPTIMA 96-well plate reader (BMG LABTECH, Offenburg, Germany). Absorbance recorded in each well was related to the average absorbance of nontreated control wells to calculate the percentage of cell viability. Datapoints included in figures are means of triplicates from one independent experiment with SEM. Sigmoidal dose response curves were fitted and median cytotoxic concentration (CC50) values were calculated with GraphPad Prism 8.0.0 using a bottom constraint of 0 and the formula Y = Top/(1 + 10^((LogCC50-X) * HillSlope)) as further specified in Figures S5, S7, and S9.

[7] = test system: SARS-CoV-2/human/Denmark/DK-AHH1/2020; assay: microbe, parasite or virus in culture; type: cell-based; details: for EC50: Severe acute respiratory syndrome coronavirus 2, 48 h
[8] = test system: SARS-CoV-2 isolate from Wuhan; set-up: method as in earlier work; details: VeroE6 cells, assay terminated 24 h post infection, ref 22 (Cao et al.); cited from earlier work
[9] = test system: SARS-CoV-2/human/Denmark/DK-AHH1/2020; assay: Concentration–response treatment antiviral assay in VeroE6 cells (spike immunostaining); type: cell-based; details: for EC50: Severe acute respiratory syndrome coronavirus 2, Vero C1008; for concentration at which almost / close to complete virus inhibition was achieved: treatment assay
[10] = test system: SARS-CoV-2/human/Denmark/DK-AHH1/2020; assay: Time-of-addition experiment with artesunate in A549-hACE2 cells; type: cell-based; details: for inhibition at 14 µg/mL: read-out: inhibition of viral infection
[11] = Cell viability assay (CellTiter 96 AQueous One) in Huh7.5 cells; details: human
Description: as §1

[12] = test system: SARS-CoV-2/human/Germany/BavPat 1/2020; assay: Plaque reduction antiviral assay (pretreatment) in VeroE6 cells; type: cell-based; details: addition prior to virus addition
[13] = in vitro; details: African green monkey
Description: as §1

[14] = Severe acute respiratory syndrome coronavirus 2, 72 h, Huh7.5 cells, treatment assay, added directly after inoculation, 3-day incubation, read-out: EC50
[15] = A549-hACE2 cells, treatment assay, added directly after inoculation, 2-day incubation, read-out: EC50
[16] = VeroE6 cells, added 1 h post infection, 2-day incubation, read-out: EC50 Treatment assay

Compound	CC50 at 48 h [1] [µg/mL]	EC50 [2, 14] [µg/mL]	EC50 [3] [µg/mL]	CC50 at 48 h [6] [µg/mL]	EC50 [7, 15] [µg/mL]	EC50 [9, 16] [µg/mL]	concentration at which almost / close to complete virus inhibition was achieved ([9]; VeroE6 cells) [µg/mL]	CC50 at 72 h [11] [µg/mL]	EC50 [4] [µg/mL]	further results
C[C@H]1[C@H](OC(=O)CCC(=O)O)O[C@@H]2O[C@@]3(C)CC[C@H]4[C@H](C)CC[C@@H]1[C@@]24OO3 [Artesunate]	27 (≈ 70.2 µM)	11 (≈ 28.6 µM)	7 to 12 (≈ 18.2 to 31.2 µM)	41 (≈ 107 µM)	12 (≈ 31.2 µM)	7	15	93 (≈ 242 µM)	–	concentration with close to complete virus inhibition ([2]; Huh7.5 cells, treatment assay): 22 µg/mL; inhibition at 15 µg/mL ([4]; Severe acute respiratory syndrome coronavirus 2, Vero C1008, pretreatment assay, 15 µg/mL (highest evaluated concentration), read-out: virus inhibition): 69%; tissue concentrations (lung, kidney, intestine, spleen) versus plasma concentrations [5]: several-fold higher; inhibition at 14 µg/mL ([7]; Severe acute respiratory syndrome coronavirus 2, A549-hACE2 cells, treatment assay, highest evaluated concentration 14 µg/mL): 63%; EC50 [8]: 13 µM; EC50 ([9]; VeroE6 treatment assay, read-out: EC50): 18 µM; inhibition of viral infection ([10]; 14 µg/mL, added 0 h post inoculation, present during the 2 h viral infection phase): did not result in inhibition; inhibition at 14 µg/mL ([10]; Severe acute respiratory syndrome coronavirus 2, added 2 h post inoculation): ≥ 80%; inhibition at 14 µg/mL ([10]; Severe acute respiratory syndrome coronavirus 2, added 4 h post inoculation): ≥ 80%; inhibition at 14 µg/mL ([10]; Severe acute respiratory syndrome coronavirus 2, added 6 h post inoculation): ≥ 80%
C[C@@H]1CC[C@H]2[C@@H](C)C(=O)O[C@@H]3O[C@@]4(C)CC[C@@H]1[C@]32OO4 [Artemisinin]	1530 (≈ 5410 µM)	> 208	–	8220 (≈ 29100 µM)	168 (≈ 595 µM)	151	1208	5070 (≈ 17900 µM)	238 (≈ 843 µM)	virus inhibition ([2]; Huh7.5 cells, treatment assay, highest evaluated (non-cytotoxic) concentration 208 µg/mL): no significant virus inhibition; inhibition at 208 µg/mL ([2]; Severe acute respiratory syndrome coronavirus 2, Huh7.5 cells, treatment assay, highest evaluated (non-cytotoxic) concentration 208 µg/mL): < 50%; concentration at which almost / close to complete virus inhibition was achieved ([4]; pretreatment assay): 893 µg/mL; effect on plaque formation (in words) [12]: little antiviral activity
CO[C@H]1O[C@@H]2O[C@@]3(C)CC[C@H]4[C@H](C)CC[C@@H]([C@H]1C)[C@@]24OO3 [Artemether]	380 (≈ 1270 µM)	–	53 to 98 (≈ 178 to 328 µM)	–	–	98	≥ 153	127 (≈ 426 µM)	147 (≈ 493 µM)	EC50 ([2]; Severe acute respiratory syndrome coronavirus 2, Huh7.5, 72 h): 64 µg/mL (≈ 214 µM); inhibition at 65 µg/mL ([2]; Severe acute respiratory syndrome coronavirus 2, Huh7.5, read-out: virus inhibition): 56%; inhibition at 153 µg/mL ([4]; Severe acute respiratory syndrome coronavirus 2, Vero C1008, pretreatment assay, 153 µg/mL, read-out: virus inhibition): 52%; concentration with close to complete virus inhibition ([7]; A549-hACE2 cells, treatment assay): 92 µg/mL; EC50 [7]: 53 µg/mL (≈ 178 µM); CC50 at 48 h [13]: 360 µg/mL (≈ 1210 µM)
